Experimental data taken from patent US20240390295A1, “METHODS FOR TREATING DEPRESSION” (JANSSEN PHARMACEUTICA NV, priority 2020, published 2024).

System: adult patients (aged 18-64 years) with TRD
Experiment: Maximum time to onset of clinician-reported adverse events by AE week 1/week 4 occurrence (Tables 5-16; modal dose 56, modal dose 84, Total)
Assay type: in vivo, human
Method: Patients were monitored for >90 minutes after ESK administration at each treatment session, after which time they could leave the clinical site at the clinician's discretion. AEs were monitored and reported, and safety assessments, including clinical laboratory tests and physical examinations, were conducted throughout the study. Clinician-reported AEs were categorized as mild, moderate, or severe based on clinical judgement (Table 1).
Since flexible dosing (ESK 56 or 84 mg) was permitted in the studies and an individual patient's doses could change within dosing timeframes, patients were stratified by modal dose during the respective periods.
The time to onset of the adverse events experienced by patients in Example 2 was analyzed. Tables 5-11 include the summary of specific adverse events by their respective categorized maximum time to Onset (i) across sessions 3-8 during Induction Phase by AE week 1 occurrence (Table 5), (ii) during Optimization Phase by AE week 1 occurrence (Table 6), (iii) during Optimization Phase by AE week 4 occurrence (Table 7), (iv) during Month 3-6 of Maintenance Phase by AE week 1 occurrence (Table 8), (v) Month 3-6 of Maintenance Phase by AE week 4 occurrence (Table 9), (vi) Month 6-12 of Maintenance Phase by AE week 1 occurrence (Table 10), and (vii) during Month 6-12 of Maintenance Phase by AE week 4 (Table 11).
Tables 12-16 include the incidences of clinician-reported blood pressure (Table 12), clinician-reported dissociation (Table 13), dizziness (Table 14), sedation (Table 15), and vertigo (Table 16) spanning week 1 to month 12 using the data of Example 2.

[1] = Based on Week 1, None, Month 3-6
[2] = Based on Week 1, None, Month 6-12
[3] = Based on Week 1, None, Weeks 2-4
[4] = Based on Week 1, Once, Month 3-6
[5] = Based on Week 1, Once, Month 6-12
[6] = Based on Week 1, Once, Weeks 2-4
[7] = Based on Week 1, Twice, Month 2
[8] = Based on Week 1, Twice, Month 3-6
[9] = Based on Week 1, Twice, Month 6-12
[10] = Based on Week 1, Twice, Weeks 2-4
[11] = Based on Week 1, incidence None, Month 2
[12] = Based on Week 1, incidence None, Month 3-6
[13] = Based on Week 1, incidence None, Month 6-12
[14] = Based on Week 1, incidence None, Weeks 2-4
[15] = Based on Week 1, incidence Once, Month 2
[16] = Based on Week 1, incidence Once, Month 3-6
[17] = Based on Week 1, incidence Once, Month 6-12
[18] = Based on Week 1, incidence Once, Weeks 2-4
[19] = Based on Week 1, incidence Twice, Month 2
[20] = Based on Week 1, incidence Twice, Month 3-6
[21] = Based on Week 1, incidence Twice, Month 6-12
[22] = Based on Week 1, incidence Twice, Weeks 2-4
[23] = Based on Week 4, None, Month 3-6

SMILES: CN[C@]1(c2ccccc2Cl)CCCCC1=O [esketamine, (S)-2-(2-chlorophenyl)-2-(methylamino)cyclohexanone]
- Blood Pressure (clinician): 0-30 m (Based on Week 1, None, Month 2): 1
- Blood Pressure (clinician): 31-60 m (Based on Week 1, None, Month 2): 12
- Blood Pressure (clinician): 61-90 m (Based on Week 1, None, Month 2): 2
- Blood Pressure (clinician): % >60 m (Based on Week 1, None, Month 2): 11.8%
- Blood Pressure (clinician): TOTAL (Based on Week 1, None, Month 2): 17
- Blood Pressure (clinician): n >60 m (Based on Week 1, None, Month 2): 2
- Blood Pressure (clinician): 31-60 m [1]: 13
- Blood Pressure (clinician): 61-90 m [1]: 1
- Blood Pressure (clinician): % >60 m [1]: 5.9%
- Blood Pressure (clinician): TOTAL [1]: 17
- Blood Pressure (clinician): n >60 m [1]: 1
- Blood Pressure (clinician): 31-60 m [2]: 8
- Blood Pressure (clinician): 61-90 m [2]: 1
- Blood Pressure (clinician): % >60 m [2]: 10%
- Blood Pressure (clinician): TOTAL [2]: 10
- Blood Pressure (clinician): n >60 m [2]: 1
- Blood Pressure (clinician): 31-60 m [3]: 20
- Blood Pressure (clinician): 61-90 m [3]: 1
- Blood Pressure (clinician): % >60 m [3]: 4.8%
- Blood Pressure (clinician): TOTAL [3]: 21
- Blood Pressure (clinician): n >60 m [3]: 1
- Blood Pressure (clinician): 31-60 m (Based on Week 1, Once, Month 2): 9
- Blood Pressure (clinician): % >60 m (Based on Week 1, Once, Month 2): 0%
- Blood Pressure (clinician): TOTAL (Based on Week 1, Once, Month 2): 9
- Blood Pressure (clinician): n >60 m (Based on Week 1, Once, Month 2): 0
- Blood Pressure (clinician): 31-60 m [4]: 4
- Blood Pressure (clinician): % >60 m [4]: 0%
- Blood Pressure (clinician): TOTAL [4]: 4
- Blood Pressure (clinician): n >60 m [4]: 0
- Blood Pressure (clinician): 31-60 m [5]: 1
- Blood Pressure (clinician): % >60 m [5]: 0%
- Blood Pressure (clinician): TOTAL [5]: 1
- Blood Pressure (clinician): n >60 m [5]: 0
- Blood Pressure (clinician): 0-30 m [6]: 1
- Blood Pressure (clinician): 31-60 m [6]: 11
- Blood Pressure (clinician): 61-90 m [6]: 1
- Blood Pressure (clinician): % >60 m [6]: 7.7%
- Blood Pressure (clinician): TOTAL [6]: 13
- Blood Pressure (clinician): n >60 m [6]: 1
- Blood Pressure (clinician): 31-60 m [7]: 10
- Blood Pressure (clinician): % >60 m [7]: 0%
- Blood Pressure (clinician): TOTAL [7]: 10
- Blood Pressure (clinician): n >60 m [7]: 0
- Blood Pressure (clinician): 31-60 m [8]: 3
- Blood Pressure (clinician): 61-90 m [8]: 1
- Blood Pressure (clinician): % >60 m [8]: 25%
- Blood Pressure (clinician): TOTAL [8]: 4
- Blood Pressure (clinician): n >60 m [8]: 1
- Blood Pressure (clinician): 31-60 m [9]: 2
- Blood Pressure (clinician): % >60 m [9]: 0%
- Blood Pressure (clinician): TOTAL [9]: 2
- Blood Pressure (clinician): n >60 m [9]: 0
- Blood Pressure (clinician): 31-60 m [10]: 12
- Blood Pressure (clinician): 61-90 m [10]: 1
- Blood Pressure (clinician): % >60 m [10]: 14.2%
- Blood Pressure (clinician): >90 m [10]: 1
- Blood Pressure (clinician): TOTAL [10]: 14
- Blood Pressure (clinician): n >60 m [10]: 2
- Dissociation (clinician), % >60 m [11]: 0%
- Dizziness, % >60 m [11]: 3.7%
- Sedation, % >60 m [11]: 0%
- Vertigo, % >60 m [11]: 4.2%
- Dissociation (clinician), % >60 m [12]: 2.8%
- Dizziness, % >60 m [12]: 2.9%
- Sedation, % >60 m [12]: 11.8%
- Vertigo, % >60 m [12]: 16.7%
- Dissociation (clinician), % >60 m [13]: 4.5%
- Dizziness, % >60 m [13]: 0%
- Sedation, % >60 m [13]: 0%
- Vertigo, % >60 m [13]: 11.1%
- Dissociation (clinician), % >60 m [14]: 0%
- Dizziness, % >60 m [14]: 4.3%
- Sedation, % >60 m [14]: 15.8%
- Vertigo, % >60 m [14]: 11.1%
- Dissociation (clinician), % >60 m [15]: 4%
- Dizziness, % >60 m [15]: 6.1%
- Sedation, % >60 m [15]: 0%
- Vertigo, % >60 m [15]: 15.8%
- Dissociation (clinician), % >60 m [16]: 0%
- Dizziness, % >60 m [16]: 0%
- Sedation, % >60 m [16]: 0%
- Sedation, patients by time to onset [16]: 0
- Vertigo, % >60 m [16]: 16.7%
- Dissociation (clinician), % >60 m [17]: 0%
- Dizziness, % >60 m [17]: 0%
- Sedation, % >60 m [17]: 0%
- Sedation, patients by time to onset [17]: 0
- Vertigo, % >60 m [17]: 0%
- Dissociation (clinician), % >60 m [18]: 7.3%
- Dizziness, % >60 m [18]: 5.4%
- Sedation, % >60 m [18]: 57.1%
- Vertigo, % >60 m [18]: 10.3%
- Dissociation (clinician), % >60 m [19]: 0%
- Dizziness, % >60 m [19]: 5.5%
- Sedation, % >60 m [19]: 0%
- Vertigo, % >60 m [19]: 0%
- Dissociation (clinician), % >60 m [20]: 3%
- Dizziness, % >60 m [20]: 2.9%
- Sedation, % >60 m [20]: 0%
- Vertigo, % >60 m [20]: 4%
- Dissociation (clinician), % >60 m [21]: 0%
- Dizziness, % >60 m [21]: 7.1%
- Sedation, % >60 m [21]: 0%
- Vertigo, % >60 m [21]: 0%
- Dissociation (clinician), % >60 m [22]: 6.3%
- Dizziness, % >60 m [22]: 7.9%
- Sedation, % >60 m [22]: 16.7%
- Vertigo, % >60 m [22]: 4.6%
- Blood Pressure (clinician): 0-30 m (Based on Week 4, None, Month 2): 1
- Blood Pressure (clinician): 31-60 m (Based on Week 4, None, Month 2): 13
- Blood Pressure (clinician): 61-90 m (Based on Week 4, None, Month 2): 2
- Blood Pressure (clinician): % >60 m (Based on Week 4, None, Month 2): 11.1%
- Blood Pressure (clinician): TOTAL (Based on Week 4, None, Month 2): 18
- Blood Pressure (clinician): n >60 m (Based on Week 4, None, Month 2): 2
- Blood Pressure (clinician): 31-60 m [23]: 13
- Blood Pressure (clinician): 61-90 m [23]: 1
- Blood Pressure (clinician): % >60 m [23]: 5.9%
- Blood Pressure (clinician): TOTAL [23]: 17
